# Test results from patent publication US20240024365A1, “POTENTIATION OF BONE MARROW CELL ACTIVITY BY COADMINISTRATION WITH OXYTOCIN” (CREATIVE MEDICAL TECHNOLOGIES, INC., priority 2022, published 2024).
# Tests used:
# [1] = test system: experimental autoimmune encephalomyelitis (EAE); test: SJL/J model of experimental autoimmune encephalomyelitis (EAE), syngeneic bone marrow cells cultured in ProCell; format: in vivo
# Procedure: (§1) Methods: Immune modulatory activity of ProCell (oxytocin) was assessed by treatment of bone marrow mononuclear cells with ProCell (oxytocin) and subsequently assayed for proliferative ability and cytokine in response to CD3/CD28 stimulation. The concentration and incubation time of ProCell (oxytocin) identified for maximal immune modulatory effect was used to treat syngeneic bone marrow cells prior to implantation in the SJL/J model of EAE. Cell transplant experiments involving transfer of mesenchymal stem cells (CD105), monocytes (CD14), T cells (CD3) and B cells (CD20) where performed to identify the cellular population responsible for disease protective effect.
# [2] = test system: bone marrow mononuclear cells / endothelial progenitors; test: Endothelial colony and tube formation of bone marrow cells; format: cell-based, human; settings: for Endothelial colony formation: bone marrow cells incubated in ProCell, semi-solid media with endothelial differentiation cocktail
# Procedure: (§2) Methods: ProCell(oxytocin) was assessed for ability to stimulate human umbilical vein endothelial cell (HUVEC) proliferation in vitro. Selected compounds where tested for ability to stimulate colony and tube formation. In vivo angiogenic activity was tested by administration of bone marrow mononuclear cells alone, or ProCell-treated bone marrow mononuclear cells in the hindlimb ischemia assay.
# Bone marrow was aspirated from patients 3 patients 18-25 years old (Young Patients) and 3 patients 65-80 years old (Old Patients). The cells were either incubated in saline for 30 minutes or incubated in ProCell(oxytocin). Bone marrow cells were evaluated. Evaluation of colony formation was performed by plating mononuclear cells in semi-solid media containing endothelial differentiation cocktail. Number of colonies where counted.
# hindlimb ischemia = test: Hindlimb ischemia assay (femoral artery ligation), limb survival; format: in vivo, mice
# Procedure: Methods: ProCell(oxytocin) was assessed for ability to stimulate human umbilical vein endothelial cell (HUVEC) proliferation in vitro. Selected compounds where tested for ability to stimulate colony and tube formation. In vivo angiogenic activity was tested by administration of bone marrow mononuclear cells alone, or ProCell-treated bone marrow mononuclear cells in the hindlimb ischemia assay. Bone marrow mononuclear cells where obtained from syngeneic mice. Cells where administered at a concentration of 1 million cells per leg intramuscularly on days 0, 2, and 4, Oxytocin was injected in the same area on the same days at a concentration of 0.1 IU per mouse. Injury was induced by ligation of the femoral artery and neurotrophic injury was induced. Limb survival was quantified.
# [3] = test system: allogeneic peripheral blood mononuclear cells (mixed lymphocyte reaction); test: Mixed lymphocyte reaction (MLR) with ProCell (oxytocin) treated cord blood CD14 monocytes; format: cell-based, human; settings: for Proliferation in MLR: ProCell treated CD14 monocytes added to MLR, tritiated thymidine; for Treg (FoxP3) generation in MLR: flow cytometry
# Procedure: Methods: UCBMNC where treated with ProCell (oxytocin) and monocytic populations where extracted by CD14 Magnetic Activated Cell Separation (MACS). Immune modulatory activity of isolated cells was examined by coculture with allogeneic lymphocytes, as well as added to ongoing mixed lymphocyte reaction (MLR). Proliferation and cytokine production was assessed. Furthermore generation of T regulatory cells was examined by flow cytometry for FoxP3 and ability to suppress T cell proliferation stimulated by CD3/CD28.
# Cryopreserved human umbilical cord mononuclear cells (UB-MNCs) were obtained from All Cells, LLC. Immediately prior to the experiment the UBMNC s were thawed in a 37° C. water bath for about one minute and then washed twice in 10 ml PBS with 100 μl DNase (Sigma #D4527-40KU, 1 mg/ml). The number of viable cells was determined using the trypan blue exclusion method. Cell viability generally ranged from 80% to 90%.
# Using magnetic antibody cell sorting (MACS), UB-MNCs were selected CD14+ monocytes, the MNC were centrifuged at 1000 rpm×10 minutes, the supernatant aspirated and the cells resuspended in 80 μl of buffer per […] and incubated at 4° C. for 15 min. Antibody conjugated paramagnetic microbeads CD14 labeled beads (cat #130-050-201, Miltenyi Biotechwere used to enrich for monocytes. After incubation, the cells were washed with buffer and centrifuged at 1000 rpm for 10 min. The cells were resuspended in 500 μl of buffer, then passed through a magnetic column that trapped the paramagnetic beads and the cells they were attached to (AutoMacs Pro). The magnetic field was disengaged and the cells collected.
# CD14 cells were cultured in ProCell (oxytocin) at various concentrations in Opti-Mem media with 10% fetal calf serum for 1 hour at 37 Celsius. Cells where subsequently washed in Phosphate Buffered Saline and plated in vitro. Assessment of Treg generation was performed in mixed lymphocyte reaction with allogeneic peripheral blood mononuclear cells. The culture lasted either 48 or 72 hours and various concentrations of ProCell (oxytocin) treated cord blood CD14 expressing cells where added to the responding PBMC. Evaluation of proliferation was performed using the tritiated thymidine method, and cytokine production was measured using ELISA.
# Additionally, the stimulation of FoxP3 expression was performed by flow cytometry using fixation and permeabiliization method.
# [4] = test system: human umbilical vein endothelial cell (HUVEC); test: HUVEC proliferation in vitro; format: cell-based; settings: compared among 73 factors tested
# Procedure: as §2
# critical limb ischemia = test: Pilot study in patients with critical limb ischemia; format: in vivo, human patients
# Procedure: Three patients suffering from critical limb ischemia were recruited. Patients matched the following inclusion criteria. a. Unreconstructable arterial disease was determined by a vascular surgeon who is not participating in the study. Unreconstructable arterial disease is defined by atherocclusive lesions within the arterial tree of the extremity that due to extent or morphology are not amenable to surgical bypass or PTCA and stenting. b. Objective evidence of severe peripheral arterial disease includes an ankle brachial index (ABI) of less than 0.55, and/or a resting toe brachial index (TBI) of […]. c. Patients must be competent to give consent. d. No history of malignant disease except for nonmelanoma skin cancer, no suspicious findings on chest x-ray, mammography (women over age 35), Papanicolaou smear (women over age 40), a normal fecal occult blood (over age 50) and a normal prostate specific antigen (men over age 45). Patients were injected with 10(8) bone-marrow mononuclear cells/aspirate, and administration of ProCell(oxytocin) was performed concurrently. Injections were performed using 10 million cells per injection, with 10 injections locally at the area of failed perfusion in a 10 cm×10 cm area in the gastrocnemius muscle. Ankle Brachial index was measured by comparing the ankle and brachial pressure.
# [5] = test system: CD3/CD28 stimulated T cell proliferation; test: CD3/CD28 stimulation of ProCell (oxytocin) treated bone marrow mononuclear cells: proliferation and cytokines; format: cell-based
# Procedure: as §1
# [6] = ProCell treated monocytes, ELISA
# [7] = bone marrow cells with concurrent ProCell, patients
smiles,measurement,setting,value
"CC[C@H](C)[C@@H]1NC(=O)[C@H](Cc2ccc(O)cc2)NC(=O)[C@@H](N)CSSC[C@@H](C(=O)N2CCC[C@H]2C(=O)N[C@@H](CC(C)C)C(=O)NCC(N)=O)NC(=O)[C@H](CC(N)=O)NC(=O)[C@H](CCC(N)=O)NC1=O [ProCell, Oxytocin]",Relapse of EAE,[1]; animals treated with ProCell cultured cells,accelerated reduction of relapse
same,Inhibition of EAE,[1]; animals treated with ProCell cultured syngeneic bone marrow cells,Dose dependent inhibition of EAE
same,FoxP3 expressing cells,[1]; correlated with disease inhibition,increased FoxP3 expressing cells
same,Endothelial colony formation,[2],increases endothelial colony formation
same,Endothelial colony formation,[2]; listed as ProCell(oxytocin),potent induction
same,Tube formation,[2]; endothelial progenitors and non-purified bone marrow mononuclear cells,potent induction
same,Limb loss,hindlimb ischemia; ProCell incubated bone marrow cells,prevents limb loss
same,Limb loss,"hindlimb ischemia; ProCell incubated bone marrow cells, listed as ProCell(oxytocin)",prevent limb loss
same,Neoangiogenesis in hindlimb ischemia model,hindlimb ischemia; bone marrow mononuclear cells/aspirate incubated with ProCell,enhanced ability to stimulate neoangiogenesis
same,Limb loss,hindlimb ischemia; localized separate intramuscular administration of ProCell and bone marrow mononuclear cells/aspirate,prevention of limb loss
same,Proliferation in MLR,[3],suppress proliferation
same,Proliferation in MLR,[3]; listed as ProCell (oxytocin),actively inhibited ongoing MLR
same,TGF-beta in MLR,[3]; ProCell treated monocytes,augmentation
same,IFN-gamma in MLR,[3]; [6],suppress IFN-Gamma
same,IL-10 in MLR,[3]; [6],enhances IL-10
same,IL-10 in MLR,"[3]; ProCell treated monocytes, ELISA, listed as ProCell (oxytocin)",augmentation
same,Treg (FoxP3) generation in MLR,[3]; ProCell treated monocytes,enhances Treg (FoxP3)
same,Treg (FoxP3) generation in MLR,"[3]; ProCell treated monocytes, listed as ProCell (oxytocin)",in vitro generation of active T regulatory cells was observed
same,Stimulation of allogeneic T cell proliferation,[3]; coculture of ProCell cultured CD14 cells with allogeneic lymphocytes,did not stimulate allogeneic T cell proliferation
same,Stimulation of HUVEC proliferation,[4],highest stimulatory activity
same,Amputation during the study period,critical limb ischemia; 10(8) bone-marrow mononuclear cells/aspirate with concurrent ProCell,No patients reported amputation
same,"Critical limb ischemia, before and after photographs",critical limb ischemia; bone marrow cells with ProCell,improving critical limb ischemia
same,Ankle brachial index,critical limb ischemia; [7],improving
same,Ankle pressure,critical limb ischemia; [7],improving
same,IFN-gamma production,[5]; CD3/CD28 stimulation,inhibition
same,IL-10 production,[5]; CD3/CD28 stimulation,upregulation
same,IL-12 production,[5]; CD3/CD28 stimulation,inhibition
same,TGF-beta production,[5]; CD3/CD28 stimulation,upregulation
same,CD3/CD28 stimulated T cell proliferation,[5]; bone marrow mononuclear cells treated with ProCell,inhibitory effect
